How the values were obtained:
[1] = molecular target: human FPR2 (Homo sapiens (Human), UniProt P25090); experiment: FPR2 cyclic adenosine monophosphate (cAMP) assay in CHO cells overexpressing human FPR2; assay type: cell-based; details: forskolin 5 μM, inhibition of cAMP production, read-out: hFPR2 cAMP2 EC50
Text: N-formyl peptide receptors (FPRs) are a family of chemo attractant receptors that facilitate leukocyte response during inflammation. FPRs belong to the seven-transmembrane G protein-coupled receptor superfamily and are linked to inhibitory G-proteins (Gi). Three family members (FPR1, FPR2 and FPR3) have been identified in humans and are predominantly found in myeloid cells with varied distribution and have also been reported in multiple organs and tissues. After agonist binding, the FPRs activate a multitude of physiological pathways, such as intra cellular signaling transduction, Ca^2+ mobilization and transcription. The family interacts with a diverse set of ligands that includes proteins, polypeptides and fatty acid metabolites which activate both pro-inflammatory and pro-resolution downstream responses. […]
FPR2 and FPR1 Cyclic Adenosine Monophosphate (cAMP) Assays. […] The level of intracellular cAMP was determined using the HTRF HiRange cAMP assay reagent kit (Cisbio) according to manufacturer's instruction. […] After a 1-h room temperature incubation, time-resolved fluorescence intensity was measured using the Envision (Perkin-Elmer) at 400 nm excitation and dual emission at 590 nm and 665 nm. […] The potency and activity of a compound to inhibit cAMP production was then determined by fitting to a 4-parametric logistic equation from a plot of cAMP level versus compound concentrations. […]

[2] = molecular target: human FPR1 (Homo sapiens (Human), UniProt P21462); experiment: FPR1 cyclic adenosine monophosphate (cAMP) assay in CHO cells overexpressing human FPR1; assay type: cell-based; details: forskolin 10 μM, inhibition of cAMP production, read-out: hFPR1 cAMP EC50
human FPR1, sequence (P21462 whole entry): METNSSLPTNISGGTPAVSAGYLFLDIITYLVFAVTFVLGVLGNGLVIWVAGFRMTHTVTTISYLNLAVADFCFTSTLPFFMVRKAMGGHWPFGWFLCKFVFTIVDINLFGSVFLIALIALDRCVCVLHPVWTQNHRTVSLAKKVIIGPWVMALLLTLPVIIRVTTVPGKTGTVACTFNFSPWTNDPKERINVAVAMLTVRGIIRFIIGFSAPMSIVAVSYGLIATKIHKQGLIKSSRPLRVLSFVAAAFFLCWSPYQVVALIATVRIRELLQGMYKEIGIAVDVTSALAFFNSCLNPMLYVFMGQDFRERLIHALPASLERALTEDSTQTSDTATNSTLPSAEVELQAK

human FPR2, sequence (P25090 whole entry): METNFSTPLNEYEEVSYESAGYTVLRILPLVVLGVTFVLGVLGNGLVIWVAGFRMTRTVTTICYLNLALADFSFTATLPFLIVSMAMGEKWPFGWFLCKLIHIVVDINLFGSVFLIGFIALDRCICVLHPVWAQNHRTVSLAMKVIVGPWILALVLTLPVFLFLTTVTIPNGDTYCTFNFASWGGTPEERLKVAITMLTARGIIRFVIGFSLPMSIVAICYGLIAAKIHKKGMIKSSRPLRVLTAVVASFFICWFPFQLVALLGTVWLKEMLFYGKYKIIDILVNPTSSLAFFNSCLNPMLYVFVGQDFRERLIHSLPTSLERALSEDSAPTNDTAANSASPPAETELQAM

EC50 [1]: 8.6 nM
EC50 [2]: 52 nM
Structure (SMILES): COc1c(-c2ccccc2CO)ccc(N2CC[C@@H](NC(=O)Nc3ccc(Cl)cc3F)C2=O)c1F [Example 35]

— patent US11117861B2, “Phenylpyrrolidinone formyl peptide 2 receptor agonists” (BRISTOL-MYERS SQUIBB COMPANY, priority 2018, dated 2021)
